The results in this text go back to patent US20250382305A1 (PTC THERAPEUTICS, INC., priority 2022, published 2025).

pIC50: −log10 of the molar value.

In experiment [1] the test system is Total ATXN3 (tATXN3) protein. The experiment in a line: Endogenous Total ATXN3 (tATXN3) Protein Assay (MSD immunoassay of cell lysates). The class given is cell-based. The following applies: average IC50, total ATXN3 protein in cell lysate after 48 h with compound (Table 1). How it is done: Endogenous Total ATXN3 (tATXN3) Protein Assay
Meso Scale Discovery (MSD) 96-well or 384-well plates were coated overnight at 4° C. with Ataxin 3 mouse monoclonal antibody (Invitrogen, MA3-082) at a concentration of 0.5 μg/mL in PBS (30 μL per well). Plates were then washed three times with 300 μL wash buffer (0.05% TWEEN®-20, polyethylene glycol sorbitan monolaurate, in PBS) and blocked (Meso Scale Diagnostics, R93BA-1; 5% BSA in PBS) for 2 h at RT with rotational shaking and then washed three times with wash buffer.
(§1) Test compounds were serially diluted 3.16-fold in 100% DMSO to generate a 7-point concentration curve. Aliquots of 0.5 μL of diluted compounds were transferred to a 96-well flat bottom plate by a liquid handler. An aliquot of 0.5 μL DMSO was also transferred to separate wells and used as controls. Duplicate samples were set up for each compound concentration and for the DMSO control.
Cells were thawed and incubated in cell culture media (DMEM, 10% FBS, and 1% antibiotic cocktail) for 72 h. Cells were trypsinized, counted, and re-suspended to a concentration of 100,000 cells/mL in cell culture media. A 100 μL aliquot of the cell suspensions were plated at 10,000 cells per well in the compound containing 96 well microtiter plate and incubated for in a cell culture incubator (37° C., 5% CO2, 100% relative humidity). After 48 h, the medium was removed and 50-100 μL of lysis buffer (Meso Scale Diagnostics, R60TX-2) containing 1× halt protease inhibitor cocktail of (Thermo Scientific, Halt™ Protease Inhibitor Cocktail, 78430) per well was added to cells to provide a “cell lysate”. The plate was placed on a shaker at 4° C. for 30 minutes, then stored at −80° C.
Cell lysate samples (25 μL) were transferred to the antibody-coated MSD plate and incubated overnight at 4° C. After removal of the lysates, the plate was washed three times with wash buffer, and 25 μL of Ataxin 3 recombinant rabbit monoclonal antibody (Invitrogen, #702788) secondary antibody (diluted to 0.25 μg/mL in 0.05% TWEEN®-20 in blocking buffer) was added to each well and incubated with shaking for 1-2 h at room temperature. Following incubation with the secondary antibody, the wells were rinsed with wash buffer and then 25 μL of Anti Rabbit Antibody Goat SULFO-TAG Labeled (Meso Scale Diagnostics, R32AB-1) detecting antibody (diluted to […] in 0.05% TWEEN®-20 in blocking buffer) was added to each well and incubated with shaking for 1 h at room temperature. After rinsing three times with wash buffer, 150 μL of Read Buffer T with surfactant (tris-based buffer containing tripropylamine, Meso Scale Diagnostics, R92TC-1) were added to each empty well, and the plate was imaged on a SI 6000 imager (MSD) according to manufacturers' instructions provided for 96- or 384-well plates.
(§2) An average IC50>1 μM is indicated by one star (*), between >0.3 μM and ≤1 μM is indicated by two stars (**), between >0.03 μM and ≤0.3 μM is indicated by three stars (***), and ≤0.03 μM is indicated by four stars (****).

Another experiment deals with ATXN3 pre-mRNA. The experiment is described as follows: RT-qPCR Assay to Quantify Exon 4 Skipping in ATXN3 pre-mRNA in Cells. The experiment is classed as cell-based. The following applies: percent exon 4 skipping in ATXN3 pre-mRNA, RT-qPCR of cell lysates; average IC50. How it is done:
RT-qPCR Assay to Quantify Exon 4 Skipping in ATXN3 pre-mRNA in Cells
as §1
Cells were thawed and incubated in cell culture media (DMEM, 10% FBS, and 1% antibiotic cocktail) for 72 h. Cells were trypsinized, counted, and re-suspended to a concentration of 100,000 cells/mL in cell culture media. A 100 μL aliquot of the cell suspensions were plated at 10,000 cells per well in the compound containing 96 well microtiter plate and incubated for in a cell culture incubator (37° C., 5% CO2, 100% relative humidity).
After 24 h, media was aspirated from the cells and 50 μL of the RCL2 lysis buffer (10 mM Tris-HCL pH 7.4, 150 mM NaCl, 0.33% IGEPAL® CA-630) was added to each well and incubated at RT for 1 min. Chilled nuclease free water (50 μL per well) was added and the plates were immediately transferred on ice. After 1 min on ice, plates were frozen at −80° C. overnight.
Preparation of RT-qPCR Reaction Mixture:
An aliquot of 2 μL/well of the cell lysates was transferred using the liquid handler to the Armadillo 384-Well PCR plate containing 8 μL/well of the RT-qPCR reaction mixture that was prepared as detailed above. The plates were then sealed with MicroAmp™ Optical Adhesive Film followed by spinning down for 1 min and placed in the CFX384 thermocycler (BioRad).
The RT-qPCR was carried out at the following temperatures for the indicated time: • Step 1: 48° C. (30 min) • Step 2: 95° C. (10 min) • Step 3: 95° C. (15 sec) • Step 4: 60° C. (1 min); then, repeated Steps 3 and 4 for a total of 40 cycles.
The percent exon 4 skipping was calculated for each dose of compound treatment using Equations 1 and 2.
Data were fit to a dose response curve and the IC50 was interpolated using XLfit® statistical and curve fitting package.
as §2

What is called pIC50 is the IC50 on a negative log10 scale, so that one unit is a factor of ten. In the case of `N[C@H]1CCCC[C@]1(F)c1sc2c(NCc3cccs3)cc(Cl)nc2c1Cl` [Compound 32, 2-((1R,2S)-2-amino-1-fluorocyclohexyl)-3,5-dichloro-N-(thiophen-2-ylmethyl)thieno[3,2-b]pyridin-7-amine], the pIC50 (in experiment [1]; in the experiment on ATXN3 pre-mRNA) was 6.52 to 7.52 throughout.

Regarding `N[C@@H]1CCCC[C@H]1c1sc2c(NCc3cccs3)cc(Cl)nc2c1Br` [Compound 54, 2-((1R,2R)-2-aminocyclohexyl)-3-bromo-5-chloro-N-(thiophen-2-ylmethyl)thieno[3,2-b]pyridin-7-amine], the pIC50 (in experiment [1]; with ATXN3 pre-mRNA) was 6.52 to 7.52 throughout.

For `N[C@@H]1CCCCC[C@@H]1c1sc2c(NCc3cccs3)cc(Cl)nc2c1Cl` [Compound 76, 2-((1S,2R)-2-aminocycloheptyl)-3,5-dichloro-N-(thiophen-2-ylmethyl)thieno[3,2-b]pyridin-7-amine], the pIC50 (in experiment [1]; in the experiment on ATXN3 pre-mRNA) was under 6.00 in each case.

As to `N[C@@H]1COCC[C@H]1c1sc2c(NCc3ccccc3)cc(Cl)nc2c1Br.N[C@H]1COCC[C@@H]1c1sc2c(NCc3ccccc3)cc(Cl)nc2c1Br` (mixture of isomers) [Compound 328, 2-((3R,4S)-3-aminotetrahydro-2H-pyran-4-yl)-N-benzyl-3-bromo-5-chlorothieno[3,2-b]pyridin-7-amine and 2-((3S,4R)-3-aminotetrahydro-2H-pyran-4-yl)-N-benzyl-3-bromo-5-chlorothieno[3,2-b]pyridin-7-amine], the pIC50 (in experiment [1]; with ATXN3 pre-mRNA) was 6.52 to 7.52 each time.

In the case of `C#Cc1c([C@H]2CCCC[C@@H]2N)sc2c(NCc3ccccc3)cc(Cl)nc12` [Compound 210, 2-((1S,2S)-2-aminocyclohexyl)-N-benzyl-5-chloro-3-ethynylthieno[3,2-b]pyridin-7-amine], the pIC50 (in experiment [1]; in the experiment with ATXN3 pre-mRNA) was at least 7.52 in each case.

As for `N[C@@H]1CC=CC[C@H]1c1sc2c(NCc3cccs3)cc(Cl)nc2c1C#CCCCO.N[C@H]1CC=CC[C@@H]1c1sc2c(NCc3cccs3)cc(Cl)nc2c1C#CCCCO` (mixture of isomers) [Compound 175, 5-(2-((1R,6R)-6-aminocyclohex-3-en-1-yl)-5-chloro-7-((thiophen-2-ylmethyl)amino)thieno[3,2-b]pyridin-3-yl)pent-4-yn-1-ol and 5-(2-((1S,6S)-6-aminocyclohex-3-en-1-yl)-5-chloro-7-((thiophen-2-ylmethyl)amino)thieno[3,2-b]pyridin-3-yl)pent-4-yn-1-ol], the pIC50 (in experiment [1]; in the experiment with ATXN3 pre-mRNA) was at least 7.52 each time.

Turning to `N[C@@H]1CCCO[C@@H]1c1sc2c(NCc3cccs3)cc(Cl)nc2c1Br` [Compound 15, 2-((2S,3R)-3-aminotetrahydro-2H-pyran-2-yl)-3-bromo-5-chloro-N-(thiophen-2-ylmethyl)thieno[3,2-b]pyridin-7-amine], the pIC50 (in experiment [1]; with ATXN3 pre-mRNA) was 6.00 to 6.52 each time.

Turning to `N[C@H]1CCCC[C@@H]1c1sc2c(NCc3ccccc3)nc(Cl)nc2c1Br` [Compound 65, 6-[(1S,2S)-2-aminocyclohexyl]-N-benzyl-7-bromo-2-chloro-thieno[3,2-d]pyrimidin-4-amine], the pIC50 (in experiment [1]; in the experiment with ATXN3 pre-mRNA) was at least 7.52 each time.

Turning to `Cc1c([C@H]2CC=CC[C@@H]2N)sc2c(NCc3ccccc3)cc(Cl)nc12` [Compound 258, 2-((1S,6S)-6-aminocyclohex-3-en-1-yl)-N-benzyl-5-chloro-3-methylthieno[3,2-b]pyridin-7-amine], the pIC50 in experiment [1] is 6.52 to 7.52; in the experiment with ATXN3 pre-mRNA, at least 7.52.

With `N[C@@H]1CC=CC[C@@H]1c1sc2c(NCc3cccs3)cc(Cl)nc2c1Br.N[C@H]1CC=CC[C@H]1c1sc2c(NCc3cccs3)cc(Cl)nc2c1Br` (racemic) [Compound 144, 2-((1S,6RS)-6-aminocyclohex-3-en-1-yl)-3-bromo-5-chloro-N-(thiophen-2-ylmethyl)thieno[3,2-b]pyridin-7-amine and 2-((1R,6SR)-6-aminocyclohex-3-en-1-yl)-3-bromo-5-chloro-N-(thiophen-2-ylmethyl)thieno[3,2-b]pyridin-7-amine], the pIC50 (in experiment [1]; in the experiment with ATXN3 pre-mRNA) was at least 7.52 each time.

`N[C@H]1CCCO[C@@H]1c1sc2c(NCc3ccncc3)cc(Cl)nc2c1Br` [Compound 251, 2-((2S,3S)-3-aminotetrahydro-2H-pyran-2-yl)-3-bromo-5-chloro-N-(pyridin-4-ylmethyl)thieno[3,2-b]pyridin-7-amine]: the pIC50 in experiment [1] is 6.52 to 7.52; in the experiment on ATXN3 pre-mRNA, at least 7.52.

Regarding `CCc1c([C@@H]2CCC[C@H]2N)sc2c(NCc3cccs3)cc(Cl)nc12` [Compound 12, 2-((1R,2R)-2-aminocyclopentyl)-5-chloro-3-ethyl-N-(thiophen-2-ylmethyl)thieno[3,2-b]pyridin-7-amine], the pIC50 (in experiment [1]; in the experiment on ATXN3 pre-mRNA) was under 6.00 in each case.

With `Cc1c([C@H]2CCCCC[C@@H]2N)sc2c(NCc3cccs3)cc(Cl)nc12` [Compound 81, 2-((1S,2S)-2-aminocycloheptyl)-5-chloro-3-methyl-N-(thiophen-2-ylmethyl)thieno[3,2-b]pyridin-7-amine], the pIC50 (in experiment [1]; in the experiment on ATXN3 pre-mRNA) was 6.52 to 7.52 each time.

For the compound “2-((2R,3R)-3-aminotetrahydro-2H-pyran-2-yl)-5-chloro-N-(2-fluorobenzyl)thieno[3,2-b]pyridin-7-amine and 2-((2S,3S)-3-aminotetrahydro-2H-pyran-2-yl)-5-chloro-N-(2-fluorobenzyl)thieno[3,2-b]pyridin-7-amine [Compound 28]”, the pIC50 (in experiment [1]; in the experiment on ATXN3 pre-mRNA) was under 6.00 in each case.

For the compound `N[C@@H]1CCCCC[C@H]1c1sc2c(NCc3cccs3)cc(Cl)nc2c1Br` [Compound 74, 2-((1R,2R)-2-aminocycloheptyl)-3-bromo-5-chloro-N-(thiophen-2-ylmethyl)thieno[3,2-b]pyridin-7-amine], the pIC50 (in experiment [1]; in the experiment on ATXN3 pre-mRNA) was under 6.00 in each case.

For the compound `N[C@H]1CCC[C@@H]1c1sc2c(NCc3cccs3)cc(Cl)nc2c1-c1ccccc1` [Compound 131, 2-((1S,2S)-2-aminocyclopentyl)-5-chloro-3-phenyl-N-(thiophen-2-ylmethyl)thieno[3,2-b]pyridin-7-amine], the pIC50 (in experiment [1]; in the experiment with ATXN3 pre-mRNA) was under 6.00 throughout.

Take `N[C@@H]1CCOC[C@H]1c1sc2c(NCc3ccco3)cc(Cl)nc2c1Cl` [Compound 389, 2-((3S,4R)-4-aminotetrahydro-2H-pyran-3-yl)-3,5-dichloro-N-(furan-2-ylmethyl)thieno[3,2-b]pyridin-7-amine]: the pIC50 (in experiment [1]; with ATXN3 pre-mRNA) was 6.00 to 6.52 each time.

Take `N[C@H]1CCC(=O)C[C@@H]1c1sc2c(NCc3ccco3)cc(Cl)nc2c1Cl` [Compound 221, (3S,4S)-4-amino-3-(3,5-dichloro-7-((furan-2-ylmethyl)amino)thieno[3,2-b]pyridin-2-yl)cyclohexan-1-one]: the pIC50 (in experiment [1]; in the experiment on ATXN3 pre-mRNA) was at least 7.52 in each case.
